The text below walks through data of patent US20100016262A1, “Compositions and methods for reducing hepatotoxicity associated with drug administration and treating non-alcoholic fatty liver disease, non-alcoholic steatohepatitis and associated cirrhosis” (YALE UNIVERSITY, priority 2007, published 2010).

“Also recorded” adds a separate entry of the source.

One experiment has as its system wild-type mice. Description: Acetaminophen (APAP) induced hepatotoxicity in mice (500 mg/kg ip). Type of experiment: in vivo, mouse. Here is the method: • Animals. C57BL/6 mice were purchased from commercial sources. NALP3 −/−, IL-18 −/− ASC −/−, IPAF −/− and TLR9−/− mice were backcrossed nine generations onto the C57BL/6 background. Caspase 1 −/− mice were backcrossed 5-6 generations onto the C57BL/6 background. These mice have been described previously(39, 40). IL-1β was neutralized in by using the anti-IL-1β antibody from clone B 122 (a gift of R. Schreiber, Washington University) at a dose of 0.2 mg/mouse iv twice a day for a total of 48 hours after giving APAP. Control mice received Armenian hamster isotype control antibody. For survival experiments animals were euthanized when they became moribund using criteria of lack of response to stimuli or lack of righting reflex. Animal protocols were approved by the Yale University animal care and use committee. [include references for IPAF−/− (M. Lara-Tejero et al. JEM 2006) and IL-18−/−. Need to add TLR9−/− and TLR3−/−] • Acetaminophen induced hepatotoxicity. APAP (Sigma, MO) solution was made fresh for each experiment in PBS at 20 mg/ml and heated in a water bath to 55° C. to dissolve. APAP was dosed at 500 mg/kg and injected I.P after 15 hrs of starvation. Animals were euthanized by ketamine/xylazine injection at 12 hours for collection of serum, isolation of liver lymphocytes or collection of liver tissue for histology, or they were observed every four hours for 72 hours until they reached criteria for euthanasia (lack of response to stimuli or lack of righting reflex). • Aspirin/clopidogrel/SC-560. Aspirin (Sigma, MO) was made fresh for each experiment. For dosing prior to APAP it was dissolved in single deionized water at 60 mg/l and heated to 42° C. with rapid stirring to dissolve, then rapidly placed in an ice water bath to cool. Aspirin in water was given to the mice 60-72 hours prior to APAP injection. Assuming water consumption of 3-5 ml per day this dose would be equivalent to a 300-500 mg dose in an 80 kg adult human. For co-administration of APAP and aspirin, aspirin was gavaged at a dose of 6 mg/kg in a volume of 100 ul of water immediately after ip injection of APAP. Clopidogrel (Gilead Pharmaceuticals, CA.) was dissolved in PBS at 6 mg/ml and administered by gavage of 100 ul, 30 mg/kg, every 24 hours beginning 48 hours prior and ending 24 hours after APAP injection. Cox-1 inhibitor (SC-560). SC-560 (Cayman chemical, MI) was dissolved at 50 mg/ml in DMSO and further dissolved in PBS in order to gavage a dose of 5 mg/kg in 100 ul. It was administered twice per day beginning 60 hours prior to Tylenol and continued for 48 hours after APAP injection as previously established(41). • Uric Acid Peritonitis. Peritonitis was induced with uric acid crystals as previously described by injecting 3 mg of MSU intraperitoneally per mouse(27). Three hours after injection peritoneal lavage was performed on mice euthanized by isoflurane inhalation. Neutrophil infiltration was evaluated by flow cytometry. The percent of Gr-1 (BD Pharmingen, CA) positive cells was multiplied by the total cell counts. • Liver sinusoidal endothelial cell (LSEC) isolation. After in-situ pronase digestion the non-parenchymal cell suspension is centrifuged for 5 min at 100 g to remove most of the parenchymal cells. This process is repeated until no pellet is observed. The supernatant enriched in LSEC is centrifuged for 10 min at 350 g. The pellet is resuspended in PBS and centrifuged for 10 min at 350 g. The cells are resuspended in PBS and layered (3.3 ml) on the top of two-step percoll gradient (put the 5 ml of 50% percoll at the bottom and put the 6.6 ml of 25% percoll at the top). The gradients are centrifuged at 900 g for 20 min and the intermediate layer included LSEC is collected and cultured in the media (EGM™-2 MV—Microvascular Endothelial Cell Medium-2, CAMBREX, Charles City, Iowa). • ODN2088 and IRS 954 injection.

The target in the next experiment is T1, NALP3 inflammasome (Mus musculus, UniProt Q8R4B8).
T1 construct: endogenous in cells; host or cells: living C57BL/6 wild-type mice (peritoneal cavity, in vivo)
Description: Uric acid (MSU crystal) peritonitis, model of NALP3 inflammasome activation. Conditions: low dose aspirin (60 mg/l) in drinking water for three days before MSU 3 mg/mouse ip; lavage after 3 hours; P<0.0001. Type of experiment: in vivo. Here is the method:
• Animals. C57BL/6 mice were purchased from commercial sources. NALP3 −/−, IL-18 −/− ASC −/−, IPAF −/− and TLR9−/− mice were backcrossed nine generations onto the C57BL/6 background. Caspase 1 −/− mice were backcrossed 5-6 generations onto the C57BL/6 background. These mice have been described previously(39, 40). IL-1β was neutralized in by using the anti-IL-1β antibody from clone B 122 (a gift of R. Schreiber, Washington University) at a dose of 0.2 mg/mouse iv twice a day for a total of 48 hours after giving APAP. Control mice received Armenian hamster isotype control antibody. For survival experiments animals were euthanized when they became moribund using criteria of lack of response to stimuli or lack of righting reflex. Animal protocols were approved by the Yale University animal care and use committee. [include references for IPAF−/− (M. Lara-Tejero et al. JEM 2006) and IL-18−/−. Need to add TLR9−/− and TLR3−/−] • Acetaminophen induced hepatotoxicity. APAP (Sigma, MO) solution was made fresh for each experiment in PBS at 20 mg/ml and heated in a water bath to 55° C. to dissolve. APAP was dosed at 500 mg/kg and injected I.P after 15 hrs of starvation. […] Neutrophil infiltration was evaluated by flow cytometry. […]

The test system of the next experiment is THP1 cells. Description: LPS stimulation of THP1 cells, real-time PCR for pro-IL-1β. The conditions noted are these: overnight with aspirin (1.5 mM, 0.15 mM), then LPS 10 μg/ml for 8 hours; P<0.05. Type of experiment: cell-based, human.
The test system of the next experiment is mice and rats. The conditions noted are these: aspirin 200-600 mg/kg, dose range toxic to humans; cited from earlier work.
The mark [1] stands for this setting: aspirin pre-treatment, 12 hours after APAP, p<0.03.
The mark [2] stands for this setting: aspirin treatment, after APAP, p<0.005.

T1 sequence (Q8R4B8 whole entry): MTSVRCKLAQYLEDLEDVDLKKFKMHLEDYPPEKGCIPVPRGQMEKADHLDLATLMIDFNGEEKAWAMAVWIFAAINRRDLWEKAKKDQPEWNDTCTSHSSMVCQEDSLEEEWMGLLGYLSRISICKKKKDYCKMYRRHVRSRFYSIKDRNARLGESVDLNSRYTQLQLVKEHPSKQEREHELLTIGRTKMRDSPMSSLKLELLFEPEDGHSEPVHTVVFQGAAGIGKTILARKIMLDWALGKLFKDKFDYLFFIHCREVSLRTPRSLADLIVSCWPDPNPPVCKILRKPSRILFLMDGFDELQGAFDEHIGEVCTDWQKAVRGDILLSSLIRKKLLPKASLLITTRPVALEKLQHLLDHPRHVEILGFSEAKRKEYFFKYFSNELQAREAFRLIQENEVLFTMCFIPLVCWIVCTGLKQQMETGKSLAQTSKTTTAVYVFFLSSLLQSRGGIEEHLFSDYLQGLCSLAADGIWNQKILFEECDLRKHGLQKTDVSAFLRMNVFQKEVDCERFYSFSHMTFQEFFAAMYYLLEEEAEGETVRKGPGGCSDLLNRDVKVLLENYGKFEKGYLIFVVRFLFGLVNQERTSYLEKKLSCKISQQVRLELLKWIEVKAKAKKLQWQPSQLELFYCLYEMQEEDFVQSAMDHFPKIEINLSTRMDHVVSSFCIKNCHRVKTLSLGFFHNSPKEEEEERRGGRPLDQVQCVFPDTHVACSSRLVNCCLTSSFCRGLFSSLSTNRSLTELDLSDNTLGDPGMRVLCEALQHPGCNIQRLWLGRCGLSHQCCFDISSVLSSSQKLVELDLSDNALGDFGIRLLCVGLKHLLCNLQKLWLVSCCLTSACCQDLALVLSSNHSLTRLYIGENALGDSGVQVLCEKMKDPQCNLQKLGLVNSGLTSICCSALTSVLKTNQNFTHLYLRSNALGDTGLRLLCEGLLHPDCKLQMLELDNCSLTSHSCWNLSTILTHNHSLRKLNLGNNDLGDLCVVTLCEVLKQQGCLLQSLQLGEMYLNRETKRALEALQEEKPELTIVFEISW

As for `CC(=O)Oc1ccccc1C(=O)O` [aspirin, acetylsalicylic acid], in the experiment on wild-type mice (ASA in drinking water, after APAP, p<0.02), the “serum IL-1β levels (ELISA)” value is reported as “significant reduction”. Further, the “survival after APAP” value in the experiment on wild-type mice (aspirin 60 mg/l in drinking water for 3 days before APAP 500 mg/kg ip, n=17 vs control n=13, P<0.02) is listed as “markedly improved survival”. In addition, the survival in the experiment with wild-type mice (aspirin given concordantly with APAP, 6 mg/kg by gavage immediately after APAP, control 22% ±19%, P<0.04) is given as 43% ±11%. Moreover, the “liver histology (H&E), liver injury and hemorrhage” value in the experiment with wild-type mice (aspirin in drinking water for three days before APAP, 12 hours after APAP) is “markedly improved; also recorded: significant reduction in APAP induced liver injury and hemorrhage”. Also, in the experiment with wild-type mice (setting [1]), the “pro-IL-1β message, whole liver (real-time PCR)” value is given as “reduced to normal levels” and the “pro-IL-18 message, whole liver (real-time PCR)” value is “reduced to normal levels”. Further, the “serum ALT” value in the experiment on wild-type mice (aspirin pre-treatment, 12 hrs after APAP, P<0.04) is “significantly lower”. Moreover, in the experiment with wild-type mice (setting [2]), the “IFN-γ expression, whole liver (real-time PCR)” value is reported as “reduced” and the “TNF-α expression, whole liver (real-time PCR)” value was “reduced”. The “neutrophil exudates (Gr-1 positive neutrophils in peritoneal lavage)” value at NALP3 inflammasome is recorded as “eightfold reduction”. Moreover, the “pro-IL-1β transcript up-regulation by LPS” value with THP1 cells is given as “reduced”. For the same molecule, in the experiment on mice and rats, the “liver injury from APAP” value was “reduce liver injury” and the “survival from APAP” value was “not improve survival”.

Consider `COc1ccc(-n2nc(C(F)(F)F)cc2-c2ccc(Cl)cc2)cc1` [SC-560], for which, in the experiment with wild-type mice (SC-560 5 mg/kg gavage twice daily from 60 hours before to 48 hours after APAP, n=10 vs PBS n=10, P<0.97), the “survival after APAP (protection against APAP toxicity)” value was “did not protect”.

`COC(=O)[C@H](c1ccccc1Cl)N1CCc2sccc2C1` [clopidogrel]: the “survival after APAP (protection against APAP toxicity)” value in the experiment on wild-type mice (clopidogrel 30 mg/kg gavage every 24 hrs from 48 hours before to 24 hours after APAP, n=15 vs PBS n=15, P<0.31) is on record as “did not protect”.
